Values after ≈ are worked out from the molar mass of the structure shown. Bridge positions count the residues as written; N and C are the ends. Square brackets hold non-standard residues; d marks the D form. Peptide text beside a SMILES is read from it. I, II: the chains in the order shown. * marks the point of attachment. ξ: configuration not given here. Pentadecanoyl = CCCCCCCCCCCCCCC(=O)*; Lauroyl = CCCCCCCCCCCC(=O)*; Decanoyl = CCCCCCCCCC(=O)*; Nonanoyl = CCCCCCCCC(=O)*; Octanoyl = CCCCCCCC(=O)*; Hexanoyl = CCCCCC(=O)*; ξK = NCCCCC(N)C(=O)O; Butyryl = CCCC(=O)*
Legend:
Staphylococcus aureus [1] = experiment: Antibacterial activity against Staphylococcus aureus ATCC 25923 assessed as reduction in bacterial cell growth incubated for 16 to 24 hrs by CLSI-protocol based Mueller-Hinton Broth micro-dilution method; type: functional; details: time 16-24 hrs
Bacillus subtilis [2] = experiment: Antibacterial activity against Bacillus subtilis ATCC 23857 assessed as reduction in bacterial cell growth incubated for 16 to 24 hrs by CLSI-protocol based Mueller-Hinton Broth micro-dilution method; type: functional; details: time 16-24 hrs
Erythrocyte = experiment: Hemolytic activity in human erythrocyte incubated for 70 mins by absorbance based assay; type: toxicity, cell-based; details: 1.167 h
Klebsiella pneumoniae [3] = experiment: Antibacterial activity against Klebsiella pneumoniae ATCC 700603 assessed as reduction in bacterial cell growth incubated for 16 to 24 hrs by CLSI-protocol based Mueller-Hinton Broth micro-dilution method; type: functional; details: time 16-24 hrs
Escherichia coli [4] = experiment: Antibacterial activity against Escherichia coli ATCC 25922 assessed as reduction in bacterial cell growth incubated for 16 to 24 hrs by CLSI-protocol based Mueller-Hinton Broth micro-dilution method; type: functional; details: time 16-24 hrs
Pseudomonas aeruginosa [5] = experiment: Antibacterial activity against Pseudomonas aeruginosa ATCC 27853 assessed as reduction in bacterial cell growth incubated for 16 to 24 hrs by CLSI-protocol based Mueller-Hinton Broth micro-dilution method; type: functional; details: time 16-24 hrs
Bacillus subtilis [6] = experiment: Antibacterial activity against Bacillus subtilis ATCC 23857 assessed as reduction in bacterial cell growth measured for 18 hrs by Mueller-Hinton broth based two-fold serial dilution method; type: functional
Klebsiella pneumoniae [7] = experiment: Antibacterial activity against Klebsiella pneumoniae ATCC 700603 assessed as reduction in bacterial cell growth measured for 18 hrs by Mueller-Hinton broth based two-fold serial dilution method; type: functional
Pseudomonas aeruginosa [8] = experiment: Antibacterial activity against Pseudomonas aeruginosa ATCC 27853 assessed as reduction in bacterial cell growth measured for 18 hrs by Mueller-Hinton broth based two-fold serial dilution method; type: functional
Escherichia coli [9] = experiment: Antibacterial activity against Escherichia coli ATCC 25922 assessed as reduction in bacterial cell growth measured for 18 hrs by Mueller-Hinton broth based two-fold serial dilution method; type: functional
Staphylococcus aureus [10] = experiment: Antibacterial activity against Staphylococcus aureus ATCC 25923 assessed as reduction in bacterial cell growth measured for 18 hrs by Mueller-Hinton broth based two-fold serial dilution method; type: functional

Row | Compound | MIC (Staphylococcus aureus [1]) [µM] | MIC (Bacillus subtilis [2]) [µM] | HC10 (Erythrocyte) [µM] | MIC (Klebsiella pneumoniae [3]) [µM] | MIC (Escherichia coli [4]) [µM] | MIC (Pseudomonas aeruginosa [5]) [µM] | MIC (Bacillus subtilis [6]) [µM] | MIC (Klebsiella pneumoniae [7]) [µM] | MIC (Pseudomonas aeruginosa [8]) [µM] | MIC (Escherichia coli [9]) [µM] | MIC (Staphylococcus aureus [10]) [µM]
1 | CC[C@H](C)[C@H](NC(=O)[C@H](CCCNC(=N)N)NC(=O)[C@H](CCCCN)NC(=O)[C@H](CC(C)C)NC(=O)[C@H](CC(C)C)NC(=O)CN)C(=O)N[C@@H](CCCCN)C(=O)N[C@H](C(=O)N[C@@H](CC(C)C)C(=O)N[C@@H](CC(C)C)C(=O)NCCCCC(NC(=O)[C@H](CC(C)C)NC(=O)[C@H](CC(C)C)NC(=O)[C@@H](NC(=O)[C@H](CCCCN)NC(=O)[C@@H](NC(=O)[C@H](CCCNC(=N)N)NC(=O)[C@H](CCCCN)NC(=O)[C@H](CC(C)C)NC(=O)[C@H](CC(C)C)NC(=O)CN)[C@@H](C)CC)[C@@H](C)O)C(N)=O)[C@@H](C)O (some centres not stated) (I: H-GLLKRIKTLL[ξK]-NH2 / II: H-GLLKRIKTLL; amide I:11-II:C) | 16 (≈ 38.7 µg/mL) | 4 (≈ 9.67 µg/mL) | 51.2 | 8 (≈ 19.3 µg/mL) | 8 (≈ 19.3 µg/mL) | 8 (≈ 19.3 µg/mL) |  |  |  |  | 
2 | CCCCCC(=O)NCC(=O)N[C@@H](CC(C)C)C(=O)N[C@@H](CC(C)C)C(=O)N[C@@H](CCCCN)C(=O)N[C@@H](CCCNC(=N)N)C(=O)N[C@H](C(=O)N[C@@H](CCCCN)C(=O)N[C@H](C(=O)N[C@@H](CC(C)C)C(=O)N[C@@H](CC(C)C)C(=O)NCCCCC(NC(=O)[C@H](CC(C)C)NC(=O)[C@H](CC(C)C)NC(=O)[C@@H](NC(=O)[C@H](CCCCN)NC(=O)[C@@H](NC(=O)[C@H](CCCNC(=N)N)NC(=O)[C@H](CCCCN)NC(=O)[C@H](CC(C)C)NC(=O)[C@H](CC(C)C)NC(=O)CNC(=O)CCCCC)[C@@H](C)CC)[C@@H](C)O)C(N)=O)[C@@H](C)O)[C@@H](C)CC (some centres not stated) (I: Hexanoyl-GLLKRIKTLL[ξK]-NH2 / II: Hexanoyl-GLLKRIKTLL; amide I:11-II:C) | 8 (≈ 20.9 µg/mL) | 8 (≈ 20.9 µg/mL) | 6.08 | 8 (≈ 20.9 µg/mL) | 4 (≈ 10.5 µg/mL) | 16 (≈ 41.8 µg/mL) |  |  |  |  | 
3 | CCCCCCCCCCCC(=O)NCC(=O)N[C@@H](CC(C)C)C(=O)N[C@@H](CC(C)C)C(=O)N[C@@H](CCCCN)C(=O)N[C@@H](CCCNC(=N)N)C(=O)N[C@H](C(=O)N[C@@H](CCCCN)C(=O)N[C@H](C(=O)N[C@@H](CC(C)C)C(=O)N[C@@H](CC(C)C)C(=O)NCCCCC(NC(=O)[C@H](CC(C)C)NC(=O)[C@H](CC(C)C)NC(=O)[C@@H](NC(=O)[C@H](CCCCN)NC(=O)[C@@H](NC(=O)[C@H](CCCNC(=N)N)NC(=O)[C@H](CCCCN)NC(=O)[C@H](CC(C)C)NC(=O)[C@H](CC(C)C)NC(=O)CNC(=O)CCCCCCCCCCC)[C@@H](C)CC)[C@@H](C)O)C(N)=O)[C@@H](C)O)[C@@H](C)CC (some centres not stated) (I: Lauroyl-GLLKRIKTLL[ξK]-NH2 / II: Lauroyl-GLLKRIKTLL; amide I:11-II:C) | 256 (≈ 712 µg/mL) | 256 (≈ 712 µg/mL) | 15.16 | 256 (≈ 712 µg/mL) | 128 (≈ 356 µg/mL) | 256 (≈ 712 µg/mL) |  |  |  |  | 
4 | CCCCCCCC(=O)NCC(=O)N[C@@H](CC(C)C)C(=O)N[C@@H](CC(C)C)C(=O)N[C@@H](CCCCN)C(=O)N[C@@H](CCCNC(=N)N)C(=O)N[C@H](C(=O)N[C@@H](CCCCN)C(=O)N[C@H](C(=O)N[C@@H](CC(C)C)C(=O)N[C@@H](CC(C)C)C(=O)NCCCCC(NC(=O)[C@H](CC(C)C)NC(=O)[C@H](CC(C)C)NC(=O)[C@@H](NC(=O)[C@H](CCCCN)NC(=O)[C@@H](NC(=O)[C@H](CCCNC(=N)N)NC(=O)[C@H](CCCCN)NC(=O)[C@H](CC(C)C)NC(=O)[C@H](CC(C)C)NC(=O)CNC(=O)CCCCCCC)[C@@H](C)CC)[C@@H](C)O)C(N)=O)[C@@H](C)O)[C@@H](C)CC (some centres not stated) (I: Octanoyl-GLLKRIKTLL[ξK]-NH2 / II: Octanoyl-GLLKRIKTLL; amide I:11-II:C) | 64 (≈ 171 µg/mL) | 32 (≈ 85.5 µg/mL) | 5.67 | 32 (≈ 85.5 µg/mL) | 16 (≈ 42.7 µg/mL) | 128 (≈ 342 µg/mL) |  |  |  |  | 
5 | CCCCCCCCCCCC(=O)NCC(=O)N[C@@H](CC(C)C)C(=O)N[C@@H](CC(C)C)C(=O)N[C@@H](CCCCN)C(=O)N[C@@H](CCCNC(=N)N)C(=O)N[C@H](C(=O)N[C@@H](CCCCN)C(=O)N[C@H](C(=O)N[C@@H](CC(C)C)C(=O)N[C@@H](CC(C)C)C(N)=O)[C@@H](C)O)[C@@H](C)CC (Lauroyl-GLLKRIKTLL-NH2) | 16 (≈ 21.4 µg/mL) | 16 (≈ 21.4 µg/mL) | 11.38 | 128 (≈ 171 µg/mL) | 64 (≈ 85.5 µg/mL) | 32 (≈ 42.7 µg/mL) |  |  |  |  | 
6 | CCCCCCCCC(=O)NCC(=O)N[C@@H](CC(C)C)C(=O)N[C@@H](CC(C)C)C(=O)N[C@@H](CCCCN)C(=O)N[C@@H](CCCNC(=N)N)C(=O)N[C@H](C(=O)N[C@@H](CCCCN)C(=O)N[C@H](C(=O)N[C@@H](CC(C)C)C(=O)N[C@@H](CC(C)C)C(N)=O)[C@@H](C)O)[C@@H](C)CC (Nonanoyl-GLLKRIKTLL-NH2) |  |  |  |  |  |  | 4 (≈ 5.18 µg/mL) | 16 (≈ 20.7 µg/mL) | 8 (≈ 10.4 µg/mL) | 8 (≈ 10.4 µg/mL) | 8 (≈ 10.4 µg/mL)
7 | CCCCCCCC(=O)NCC(=O)N[C@@H](CC(C)C)C(=O)N[C@@H](CC(C)C)C(=O)N[C@@H](CCCCN)C(=O)N[C@@H](CCCNC(=N)N)C(=O)N[C@H](C(=O)N[C@@H](CCCCN)C(=O)N[C@H](C(=O)N[C@@H](CC(C)C)C(=O)N[C@@H](CC(C)C)C(N)=O)[C@@H](C)O)[C@@H](C)CC (Octanoyl-GLLKRIKTLL-NH2) | 8 (≈ 10.2 µg/mL) | 8 (≈ 10.2 µg/mL) | 210.63 | 16 (≈ 20.5 µg/mL) | 16 (≈ 20.5 µg/mL) | 8 (≈ 10.2 µg/mL) |  |  |  |  | 
8 | CCCCCCCCCCCCCCC(=O)NCC(=O)N[C@@H](CC(C)C)C(=O)N[C@@H](CC(C)C)C(=O)N[C@@H](CCCCN)C(=O)N[C@@H](CCCNC(=N)N)C(=O)N[C@H](C(=O)N[C@@H](CCCCN)C(=O)N[C@H](C(=O)N[C@@H](CC(C)C)C(=O)N[C@@H](CC(C)C)C(N)=O)[C@@H](C)O)[C@@H](C)CC (Pentadecanoyl-GLLKRIKTLL-NH2) |  |  |  |  |  |  | 8 (≈ 11 µg/mL) | 32 (≈ 44.1 µg/mL) | 16 (≈ 22 µg/mL) | 16 (≈ 22 µg/mL) | 16 (≈ 22 µg/mL)
9 | I: Butyryl-GLLKRIKTLL[ξK][ξK]-NH2 / II: Butyryl-GLLKRIKTLL[ξK] / III: Butyryl-GLLKRIKTLL / IV: Butyryl-GLLKRIKTLL (amide I:11-IV:C, I:12-II:C, II:11-III:C) | 16 | 16 | 1.06 | 32 | 8 | 8 |  |  |  |  | 
10 | I: Decanoyl-GLLKRIKTLL[ξK][ξK]-NH2 / II: Decanoyl-GLLKRIKTLL[ξK] / III: Decanoyl-GLLKRIKTLL / IV: Decanoyl-GLLKRIKTLL (amide I:11-IV:C, I:12-II:C, II:11-III:C) | 256 | 256 | 12.51 | 256 | 256 | 256 |  |  |  |  | 
11 | I: H-GLLKRIKTLL[ξK][ξK]-NH2 / II: H-GLLKRIKTLL[ξK] / III: H-GLLKRIKTLL / IV: H-GLLKRIKTLL (amide I:11-IV:C, I:12-II:C, II:11-III:C) | 8 | 8 | 1.31 | 16 | 8 | 8 |  |  |  |  | 
12 | I: Hexanoyl-GLLKRIKTLL[ξK][ξK]-NH2 / II: Hexanoyl-GLLKRIKTLL[ξK] / III: Hexanoyl-GLLKRIKTLL / IV: Hexanoyl-GLLKRIKTLL (amide I:11-IV:C, I:12-II:C, II:11-III:C) | 32 | 32 | 10.91 | 32 | 32 | 32 |  |  |  |  | 
13 | I: Lauroyl-GLLKRIKTLL[ξK][ξK]-NH2 / II: Lauroyl-GLLKRIKTLL[ξK] / III: Lauroyl-GLLKRIKTLL / IV: Lauroyl-GLLKRIKTLL (amide I:11-IV:C, I:12-II:C, II:11-III:C) | 256 | 256 | 210.92 | 256 | 125 | 256 |  |  |  |  | 
14 | I: Octanoyl-GLLKRIKTLL[ξK][ξK]-NH2 / II: Octanoyl-GLLKRIKTLL[ξK] / III: Octanoyl-GLLKRIKTLL / IV: Octanoyl-GLLKRIKTLL (amide I:11-IV:C, I:12-II:C, II:11-III:C) | 256 | 256 | 103.4 | 256 | 256 | 256 |  |  |  |  | 

From ChEMBL document CHEMBL5608163, “Structure modification of anoplin for fighting resistant bacteria” (Eur J Med Chem, 2024)
